According to ChEMBL document CHEMBL1201862, “PubChem BioAssay data set” (2004):
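Assay format: 96-well plates, 48-hour exposure. GI50 is the concentration that inhibits growth by half.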 The source made the active and inactive calls. Rule as the data show it: active = GI50 up to about 1.1 µM and inactive = higher.

Experiments:
Assay in all cases: inhibition of tumour cell growth, NCI panel, 48 h
[1] = tested on: A549
[2] = tested on: EKVX
[3] = tested on: IGROV-1
[4] = tested on: K562
[5] = tested on: Malme-3M
[6] = tested on: NCI-H226
[7] = tested on: NCI-H460
[8] = tested on: NCI-H522
[9] = tested on: OVCAR-3
[10] = tested on: OVCAR-4
[11] = tested on: OVCAR-8
[12] = tested on: RXF 393
[13] = tested on: SK-MEL-28
[14] = tested on: SW-620
[15] = tested on: UO-31
[16] = tested on: LOX IMVI
[17] = tested on: SK-MEL-5

Measured: GI50

O=C1C=C(Nc2ccc(Br)cc2)c2ccccc2C1=O
inactive: [1] 12.7 µM | [2] 18.5 µM | [3] 14.8 µM | [4] 13.9 µM | [5] 15.1 µM | [6] 18.7 µM | [7] 7.28 µM | [8] 11.3 µM | [9] 7.1 µM | [10] 2.09 µM | [11] 12.5 µM | [12] 16.7 µM | [13] 17.2 µM | [14] 12.9 µM | [15] 16 µM

CC(C)(C)c1cc(CCC(=O)Nc2ccc(Cl)cc2)nc(NC#N)n1
inactive: [1] > 100 µM | [2] > 100 µM | [3] > 100 µM | [4] > 100 µM | [16] > 100 µM | [6] > 100 µM | [7] > 100 µM | [9] > 100 µM | [10] > 100 µM | [11] > 100 µM | [13] > 100 µM | [14] > 100 µM | [15] > 100 µM

CC(=O)Nc1ccc(Cl)c(Cl)c1
inactive: [1] > 100 µM | [2] > 100 µM | [3] > 100 µM | [4] > 100 µM | [16] > 100 µM | [5] > 100 µM | [6] > 100 µM | [7] > 100 µM | [8] > 100 µM | [9] > 100 µM | [11] > 100 µM | [12] > 100 µM | [13] > 100 µM | [14] > 100 µM | [15] > 100 µM

Cc1ccc(C)c(C(=O)CC2OC(O)C(Cl)C2Cl)c1 (centres undefined)
inactive: [1] > 100 µM | [2] > 100 µM | [3] > 100 µM | [4] 32.5 µM | [16] 18.9 µM | [5] 67.5 µM | [6] > 100 µM | [7] > 100 µM | [8] 15.6 µM | [9] 36.6 µM | [10] > 100 µM | [11] 18.3 µM | [12] 26.2 µM | [13] 39.5 µM | [17] > 100 µM | [14] 18.7 µM | [15] > 100 µM

COC(=O)C1=C(c2ccc3c(c2)OCO3)O[C@H](c2ccc3c(c2)OCO3)[C@H]1COC(C)=O
inactive: [1] 46.7 µM | [2] 59 µM | [3] 63.5 µM | [4] 35.4 µM | [16] 48.4 µM | [5] 53.2 µM | [6] 39 µM | [7] 63.5 µM | [9] 55.6 µM | [10] 36.6 µM | [11] 45.8 µM | [12] 40 µM | [13] 65 µM | [17] 24.5 µM | [14] > 100 µM | [15] 38.7 µM

NC1=NN(c2ccccc2)C(=O)C1/C(=N\NC(=O)c1cc2ccccc2cc1O)C(=O)Nc1ccc(Cl)c(Cl)c1 (centres undefined)
inactive: [1] 42.8 µM | [2] 14.4 µM | [3] 28.4 µM | [4] 28.4 µM | [16] 24.5 µM | [5] 33 µM | [6] 64.9 µM | [7] 31.3 µM | [8] 16.5 µM | [9] 5.57 µM | [10] 16.3 µM | [11] 17.3 µM | [12] 49.2 µM | [13] 83.4 µM | [17] 29.5 µM | [14] 33.1 µM | [15] 17.6 µM

Cc1cccc2nc3cccc(C(=O)NCCN(C)C)c3nc12
inactive: [9] 1.36 µM
active: [1] 0.383 µM | [2] 0.443 µM | [3] 0.525 µM | [4] 0.363 µM | [16] 0.36 µM | [6] 1.04 µM | [7] 0.301 µM | [10] 0.83 µM | [11] 0.673 µM | [12] 1.03 µM | [13] 1.01 µM | [17] 0.54 µM | [14] 0.272 µM | [15] 0.239 µM

CC(=O)c1c(P(=O)(OC(C)C)OC(C)C)nn(-c2ccc([N+](=O)[O-])cc2)c1C
inactive: [1] > 100 µM | [2] > 100 µM | [3] > 100 µM | [4] > 100 µM | [5] > 100 µM | [7] > 100 µM | [8] > 100 µM | [9] > 100 µM | [10] > 100 µM | [11] > 100 µM | [13] > 100 µM | [17] > 100 µM | [14] > 100 µM | [15] > 100 µM

CCOC(=O)Nc1cc2nnc(-c3ccccc3)nc2c(N)n1
inactive: [1] 4.81 µM | [2] 43.7 µM | [3] 13.9 µM | [4] 5.14 µM | [16] 14.7 µM | [5] 4.8 µM | [6] 24 µM | [7] 3.28 µM | [8] > 10 µM | [9] 6.43 µM | [10] 14.9 µM | [11] 23.6 µM | [12] 18 µM | [13] 16.2 µM | [17] 2.23 µM | [14] 14.6 µM | [15] 27.9 µM
